Experimental data: patent US8362031B2, “Lonidamine analogues and treatment of polycystic kidney disease” (University of Kansas, priority 2004, dated 2013)
Entries after “also recorded” stand apart in the source; their conditions may differ.

Experiments:
[1] = tested on: Salmonella Typhimurium TA 100; test: Ames test for mutagenicity (plate assay, colony count); conditions: 48 hours at 37° C.; for Ames test (+)S9 0.1 mg/pl. / Ames test (+)S9 1 mg/pl. / Ames test (+)S9 10 mg/pl.: (+)S9 mix; for Ames test (−)S9 0.1 mg/pl. / Ames test (−)S9 1 mg/pl. / Ames test (−)S9 10 mg/pl.: (−)S9 mix
rats = test: Toxicology: organs sectioned and examined after dosing; format: in vivo; conditions: for Toxicology: liver, lung, pancreas, spleen, heart and kidney (histology): two animals examined, findings per animal; for Kidney (histology) / Liver and Pancreas (histology): single injection, sacrificed five days after injection, per animal
Protocol: In at least two of the animals in each group, the pancreas, right kidney and part of the liver, heart, spleen, and lung were removed and evaluated for toxic effects.
The toxicology of animals receiving some of the compounds of the present invention IP and/or oral was examined. At the time of sacrifice samples of liver, pancreas, heart, lung, spleen and kidney were removed, visually inspected, and immersion fixed in Bouin's solution for a minimum of 48 hours. All organs were then sectioned and examined for evidence of necrosis, inflammation, hemorrhage, and possible tumors. The major veins in each tissue were also examined for distention, especially in the liver and pancreas, and any other abnormalities are compared to known histopathological states. In addition to the above, the heart was examined for evidence of fibrosis in the muscular walls, and to compare the thickness of the ventricular walls. The pancreas was examined mainly for calcium deposits, while the lung was checked for signs of any exudates or hemorrhage, especially in the alveolar spaces. Finally, the kidney was examined mainly for microscopic hemorrhages, tubular necrosis or alterations in the glomeruli in the cortex.
In this example, the effects of RC-MC-30 were compared with those of lonidamine in sexually mature rats. As discussed above, each of the rats (8 total) received a single injection and were sacrificed five days after injection and examined.

Male Long Evans rats = test: In vivo antispermatogenic testing in Long Evans rats; conditions: for Mortality (25 mg/kg) / Response 25 mg/kg: 25 mg/kg single i.p. injection; for Response 25 mg/kg / Response 200 mg/kg: animals responding out of animals surviving, five days following injection; for Mortality (200 mg/kg) / Response 200 mg/kg: 200 mg/kg single i.p. injection

Row | Structure (SMILES) | Ames test (+)S9 0.1 mg/pl. [1] | Ames test (+)S9 1 mg/pl. [1] | Ames test (+)S9 10 mg/pl. [1] | Ames test (−)S9 0.1 mg/pl. [1] | Ames test (−)S9 1 mg/pl. [1] | Ames test (−)S9 10 mg/pl. [1] | Toxicology: liver, lung, pancreas, spleen, heart and kidney (histology) (rats; 25 mg/kg) | Mortality (25 mg/kg) (Male Long Evans rats) | Response 25 mg/kg (Male Long Evans rats) | Toxicology: liver, lung, pancreas, spleen, heart and kidney (histology) (rats; 200 mg/kg) | Mortality (200 mg/kg) (Male Long Evans rats) | Response 200 mg/kg (Male Long Evans rats) | Kidney (histology) (rats; Dosage 25 mg/kg) | Liver and Pancreas (histology) (rats; Dosage 25 mg/kg) | Kidney (histology) (rats; Dosage 200 mg/kg) | Liver and Pancreas (histology) (rats; Dosage 200 mg/kg) | Clinical signs after IP injection (rats; 200 mg/kg IP, five animals) | Deaths after IP injection (rats; 200 mg/kg IP, five animals) | Recovery after IP injection (rats; 200 mg/kg IP, five animals)
1 | COc1ccc2c(n1)c(C(=O)NN)nn2Cc1ccc(Cl)cc1Cl [JWS-1-146, 1-(2,4-dichlorobenzyl)-5-methoxy-1H-pyrazolo[4,3-b]pyridine-3-carboxylic acid hydrazide] | Pass | Pass | Pass | Pass | Pass | Pass | liver, lung, pancreas, spleen, heart and kidney that appeared within normal limits | 0/5 | 0/5 | – | – | – | – | – | – | – | – | – | –
2 | COC(=O)c1nn(Cc2ccc(Cl)cc2Cl)c2cnccc12 [JWS-1-130, 1-(2,4-dichlorobenzyl)-1H-pyrazolo[3,4-c]pyridine-3-carboxylic acid methyl ester] | Pass | Pass | Pass | Pass | Pass | Pass | The liver appeared to have distended veins throughout, but no other abnormalities were noted; also recorded: The liver did have distended veins throughout, with small scattered patches of necrosis, usually located around the periportal areas | 0/5 | 0/5 | liver, lung, pancreas, spleen, heart and kidney all appeared within normal limits; also recorded: The liver did have distended veins throughout, with small scattered patches of necrosis, usually located around the periportal areas | 0/5 | 0/5 | – | – | – | – | – | – | –
3 | O=C(O)c1nn(Cc2ccc(Cl)cc2Cl)c2cccnc12 [JWS-1-114, 1-(2,4-dichlorobenzyl)-1H-pyrazolo[4,3-b]pyridine-3-carboxylic acid] | Pass | Pass | Pass | Pass | Pass | Pass | liver, lung, pancreas, spleen, heart and kidney that appeared within normal limits | 0/5 | 1/5 | The lung had massive pulmonary hemorrhaging around the bronchioles; also recorded: The liver had moderate sized (5-10 cell in diameter) necrotic patches generally in the periportal areas; also recorded: liver, lung, pancreas, spleen, heart and kidney that appeared within normal limits | 0/5 | 0/5 | – | – | – | – | – | – | –
4 | COC(=O)c1nn(Cc2ccc(Cl)cc2Cl)c2cccnc12 [JWS-1-110] | Pass | Pass | Pass | Pass | Pass | Pass | The spleen had distended veins and necrosis in the white pulp; also recorded: The liver had distended portal veins with surrounding small patches of hepatic necrosis; also recorded: The lung contained scattered hemorrhagic areas around the alveoli and terminal bronchioles; also recorded: the spleen had distended veins and diminished amounts of white pulp containing necrotic cells | 0/5 | 0/5 | The liver showed distended portal veins with scattered, small patches of necrosis; also recorded: The lung contained multiple hemorrhagic areas throughout the alveoli, and terminal and respiratory bronchioles; also recorded: the spleen demonstrated distended veins, and diminished white pulp with necrotic cells; also recorded: The liver had distended veins, with scattered, small patches of necrosis throughout; also recorded: The pancreas had distended veins, but no other noticeable abnormalities | 0/5 | 0/5 | – | – | – | – | – | – | –
5 | COC(=O)c1nn(Cc2ccc(Cl)cc2Cl)c2ccccc12 [RC-MC-30, 1-(2,4-dichlorobenzyl)indazole-3-carboxylic acid methyl ester] | Pass | Pass | Pass | Pass | Pass | Pass | – | 0/5 | 3/5 | – | 0/5 | 4/5 | Small areas with blood | Non-remarkable, | Patchy hemorrhagic areas, | Non-remarkable, | – | – | –
6 | COC(=O)c1nn(Cc2ccc(Cl)cc2Cl)c2ccc(OC)nc12 [JWS-1-142, 1-(2,4-dichlorobenzyl)-5-methoxy-1H-pyrazolo[4,3-b]pyridine-3-carboxylic acid methyl ester] | Pass | Pass | Pass | Pass | Pass | Pass | liver, lung, pancreas, spleen, heart and kidney all appeared within normal limits | 0/5 | 0/5 | The liver contained a small, confined cluster of lymphocytes in the parenchyma; also recorded: liver, lung, pancreas, spleen, heart and kidney all appeared within normal limits | 0/5 | 0/5 | – | – | – | – | – | – | –
7 | O=C(O)c1nn(Cc2ccc(Cl)cc2Cl)c2cc(C(F)(F)F)ccc12 [RC-MC-100, 1-(2,4-dichlorobenzyl)-6-trifluoromethyl-1H-indazole-3-carboxylic acid] | Pass | Pass | Pass | Pass | Pass | Pass | – | 0/5 | 0/5 | – | 0/5 | 0/5 | – | – | – | – | all 5 animals tested became lethargic and ceased moving; also recorded: minor tremors in both hindlimbs which lasted approximately 30 minutes; also recorded: Two of the animals also had wet rales | Three of the animals died 2-3 hours later | the other two recovered and did not show any other symptoms
